Laboratory results as given in patent publication US20190322697A1, “2'2'-CYCLIC DINUCLEOTIDES” (Institute of Organic Chemistry and Biochemistry, ASCR, V.V.I, priority 2018, published 2019).

Tests used:
WT STING [1] = molecular target: T1, WT STING (Homo sapiens, UniProt Q86WV6, H232R); test: Differential Scanning Fluorimetry with WT STING; format: binding; parameters: truncated human WT STING or AQ STING (amino acid residues 140-343); 8xHis (N, cleaved yes); SUMO (N, cleaved yes); made in house; host or cells: E. coli Rosetta-gami B (DE3); settings: thermal shift, truncated human WT STING 0.1 mg/ml, 150 μM CDN
Description: (§1) Purified PCR products were cleaved with restriction enzymes BamHI (cat. # R0136S, NEB, Ipswich, USA) and NotI (cat. # R0189S, NEB, Ipswich, USA) and cloned into the pSUMO vector linearized with the identical enzymes.
(§2) DNase I (cat. # D5025, Sigma Aldrich, Czech Republic) and RNase A (cat. # R6513, Sigma Aldrich, Czech Republic) were added (final concentration 50 μg/ml) together with MgCl2 (final concentration 5 mmol·l^−1) to the homogenate and bacteria were lysed using French Press G-M™ High-Pressure Cell Press Homogenizer (1500 psi, 3 cycles). […] The resin was poured into a chromatography column, washed with 50 ml buffer A (50 mmol·l^−1 TrisCl (pH 8.0), 800 mmol·l^−1 NaCl, 3 mmol·l^−1 3-mercaptoethanol; 10% glycerol; 20 mmol·l^−1 imidazole) and 8-His-SUMO tagged STING proteins were eluted with 15 ml buffer A containing 300 mmol·l^−1 imidazole. […] Proteins were concentrated with Amicon® Ultra-15 10 K device (cat. # UFC901008, Merck Millipore, Billerica, USA) and flash frozen in liquid N2.
(§3) 20 μL solutions of the reaction mixtures were pipetted in triplicates into 96 well optical reaction plates and thermal denaturation of samples were performed on real time PCR cycler (LightCycler® 480 Instrument II—Roche, Basel, Switzerland). The first derivative of the thermal denaturation curves was performed to calculate denaturing temperatures of STING-CDN complexes and STING apoproteins. The thermal shift for each CDN was calculated by subtracting the average denaturing temperature of STING apoprotein from the average denaturing temperature of STING CDN complex.
Target sequence in this assay (Q86WV6 140-343 H232R): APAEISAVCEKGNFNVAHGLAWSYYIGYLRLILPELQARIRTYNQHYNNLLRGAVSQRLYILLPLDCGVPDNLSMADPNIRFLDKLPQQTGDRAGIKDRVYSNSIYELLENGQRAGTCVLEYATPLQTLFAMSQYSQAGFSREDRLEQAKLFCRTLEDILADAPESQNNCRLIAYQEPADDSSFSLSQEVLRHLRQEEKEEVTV

WT STING [2] = molecular target: T1, WT STING; test: Digitonin assay using 293T wtSTING-FL reporter cells; format: cell-based; settings: 293T wtSTING-FL cells, ISRE firefly luciferase reporter, digitonin buffer 30 min, then 5 hours
Description: Two complementary oligonucleotides of the sequence […] […] […] […] […] […] […] The oligonucleotides were mixed in equal molar amounts, hybridized, and cleaved by restriction endonucleases HindIII (cat. #. R0104S, NEB, Ipswich, USA) and BglII (cat. # R0144S, NEB, Ipswich, USA). Ultimately, they were ligated into plasmid pGL4.27 (cat. # E6651, Promega, Madison, USA) linearized with the same enzymes. As result the sequence with four ISRE sites was placed upstream of the minimum promoter of firefly luciferase reporter gene.
After 5 minutes incubation at room temperature (RT), 250 μL of the mixture was added dropwise to the cells in one well. Cells were incubated 36 hours at 37° C. with 5% CO2, and then detached with 0.05% Trypsin and 0.22 g/L EDTA (both cat. # L0941, Biowest, Riverside, USA).
Transfected cells were seeded onto poly-D-lysine coated six well plates at density 50,000 cells per 1 cm^2 in DMEM medium with high glucose containing 10% heat inactivated FBS, 30 μg/mL blasticidin (cat. # ant-bl-05, InvivoGen, San Diego, USA), 0.06 mg/ml Penicillin G and 0.1 mg/ml Streptomycin Sulfate (both cat. #. L0018, Biowest, Riverside, USA). The medium was replenished every 3-4 days until visible colonies of cells resistant to blasticidin were formed.
Blasticidin resistant cells stably expressing WT STING were further transfected with pGL64.27-4×ISRE plasmid following the same procedure as described above. […] Homogeneous culture of stably double transfected cells was prepared by limiting dilution of cells in 96 well plates and wells with cells were selected that originated from a single cell.
The medium was removed next day and three fold serial dilutions of compounds in Digitonin buffer containing 50 mmol·l^−1 HEPES (cat. # H3375, Sigma Aldrich, Czech Republic) pH 7.0, 100 mmol·l^−1 KCl, 3 mmol·l^−1 MgCl2, 0.1 mmol·l^−1 DTT (cat. #D0632, Sigma Aldrich, Czech Republic), 85 mmol·l^−1 Sucrose (cat. # S7903, Sigma Aldrich, Czech Republic), 0.2% BSA (cat. # A2153, Sigma Aldrich, Czech Republic), 1 mmol·l^−1 ATP (cat. # A1852, Sigma Aldrich, Czech Republic), 0.1 mmol·l^−1 GTP (cat. # G8877, Sigma Aldrich, Czech Republic), and 10 μg/mL Digitonin A (cat. # D141, Sigma Aldrich, Czech Republic) were added to the cells. The buffer was removed after 30 minutes incubation at 37° C. with 5% CO2, the cells were washed once with 100 μl of cultivation medium, and 100 μl of medium was added to each well. The plates with cells were incubated for 5 hours at 37° C. with 5% CO2, 50 μl of the medium was removed and 30 μl of ONE-Glo™ Luciferase Assay System reagent (cat. # E6120, Promega, Madison, USA) was added to each well. Luminesce was read on Synergy H1 (Biotek, Winooski, USA).
Target sequence in this assay (Q86WV6 whole entry H232R, the tested form may be a part): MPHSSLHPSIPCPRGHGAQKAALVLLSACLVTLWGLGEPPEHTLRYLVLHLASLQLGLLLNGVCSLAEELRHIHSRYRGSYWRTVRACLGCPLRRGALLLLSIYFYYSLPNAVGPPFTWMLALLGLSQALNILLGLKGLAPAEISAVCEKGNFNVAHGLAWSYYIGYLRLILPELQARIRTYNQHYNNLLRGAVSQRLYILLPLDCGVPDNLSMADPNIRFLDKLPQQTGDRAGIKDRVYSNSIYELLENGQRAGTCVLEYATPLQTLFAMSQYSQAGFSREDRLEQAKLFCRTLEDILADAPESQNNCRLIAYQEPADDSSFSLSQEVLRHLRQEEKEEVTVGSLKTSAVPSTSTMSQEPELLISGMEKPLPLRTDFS

AQ STING (G230A-R293Q) = molecular target: T2, AQ STING (G230A-R293Q) (Homo sapiens, UniProt Q86WV6, G230A/H232R/R293Q); test: Differential Scanning Fluorimetry with AQ STING; format: binding; settings: thermal shift, truncated human AQ STING 0.1 mg/ml, 150 μM CDN
T2 construct: truncated human WT STING or AQ STING (amino acid residues 140-343); 8xHis (N, cleaved yes); SUMO (N, cleaved yes); made in house; host or cells: E. coli Rosetta-gami B (DE3)
Description: as §1, §2, §3

T2 sequence (Q86WV6 140-343 G230A/H232R/R293Q): as the sequence (Q86WV6 140-343 H232R) above, with G91A, R154Q counted along it

SMILES	DSF ΔTm WT STING (WT STING [1]) [°C]	EC50 (WT STING [2]) [nM]	DSF ΔTm AQ STING (AQ STING (G230A-R293Q)) [°C]
Nc1nc2c(ncn2[C@@H]2O[C@@H]3COP(=O)(O)O[C@H]4[C@@H](O)[C@H](n5cnc6c(=O)[nH]c(N)nc65)O[C@@H]4COP(=O)(O)O[C@H]3[C@H]2O)c(=O)[nH]1 [3′3′-c-di-GMP, reference compound]	2.6	5800	7.7
Nc1ncnc2c1ncn2[C@@H]1O[C@@H]2COP(=O)(O)CO[C@H]3[C@H](O)[C@@H](COP(=O)(O)O[C@@H]1[C@@H]2O)O[C@H]3n1cnc2c(N)ncnc21 [Example 5, (1R,6R,8R,9S,15R,17R,18R,19R)-8,17-bis(6-amino-9H-purin-9-yl)-3,12,18,19-tetrahydroxy-2,4,7,10,13,16-hexaoxa-3,12-diphosphatricyclo[13.2.1.1^6,9]nonadecane 3,12-dioxide]	−0.9	> 50000	0.2
Nc1nc2c(ncn2[C@@H]2O[C@@H]3COP(=O)(O)COC4C(O)[C@@H](COP(=O)(O)OC2C3O)O[C@H]4n2cnc3c(N)ncnc32)c(=O)[nH]1 (stereo partly drawn) [Example 3, 2-amino-9-((1R,6R,8R,9R,15R,17R,18R,19R)-8-(6-amino-9H-purin-9-yl)-3,12,18,19-tetrahydroxy-3,12-dioxido-2,4,7,10,13,16-hexaoxa-3,12-diphosphatricyclo[13.2.1.1^6]9nonadecan-17-yl)-1,9-dihydro-6H-purin-6-one]	12.0	50	19.0
Nc1nc2c(ncn2[C@@H]2O[C@@H]3COP(=O)(O)O[C@@H]4[C@H](O)[C@@H](COP(=O)(O)O[C@@H]2[C@@H]3O)O[C@H]4n2cnc3c(N)ncnc32)c(=O)[nH]1 [2′2′-cGAMP, reference compound]	11.5	30	19.4
Nc1nc2c(ncn2[C@@H]2O[C@@H]3COP(=O)(O)CO[C@@H]4[C@H](F)[C@@H](COP(=O)(O)O[C@@H]2[C@@H]3F)O[C@H]4n2cnc3c(N)ncnc32)c(=O)[nH]1 [Example 9, 2-amino-9-((1S,6R,8R,9S,15R,17R,18R,19R)-8-(6-amino-9H-purin-9-yl)-18,19-difluoro-3,12-dihydroxy-3,12-dioxido-2,4,7,10,13,16-hexaoxa-3,12-diphosphatricyclo[13.2.1.1^6,9]nonadecan-17-yl)-1,9-dihydro-6H-purin-6-one]	15.2	30	22.9
Nc1nc2c(ncn2[C@@H]2O[C@@H]3COP(=O)(O)CO[C@@H]4[C@H](O)[C@@H](COP(=O)(O)CO[C@@H]2[C@@H]3O)O[C@H]4n2cnc3c(=O)[nH]c(N)nc32)c(=O)[nH]1 [Example 4, 9,9′-((1R,7R,9R,10R,16R,18R,19R,20R)-4,13,19,20-tetrahydroxy-4,13-dioxido-2,5,8,1 1,14,17-hexaoxa-4,13-diphosphatricyclo[14.2.1.1^7,10]icosane-9,18-diyl)bis(2-amino-1,9-dihydro-6H-purin-6-one)]	0.3	> 50000	0.3
Nc1ncnc2c1ncn2[C@@H]1O[C@@H]2COP(=O)(O)O[C@H]3[C@@H](O)[C@H](n4cnc5c(N)ncnc54)O[C@@H]3COP(=O)(O)O[C@H]2[C@H]1O [3′3′-c-di-AMP, reference compound]	2.6	300	9.3
Nc1ncnc2c1ncn2[C@@H]1O[C@@H]2COP(=O)(O)CO[C@@H]3[C@@H](O)[C@@H](COP(=O)(O)CO[C@@H]1[C@H]2O)O[C@H]3n1cnc2c(N)ncnc21 [Example 7, (1R,7R,9R,10R,16R,18R,19S,20S)-9,18-bis(6-amino-9H-purin-9-yl)-4,13,19,20-tetrahydroxy-2,5,8,11,14,17-hexaoxa-4,13-diphosphatricyclo[14.2.1.1^7,10]icosane 4,13-dioxide]	0.0	> 50000	0.0
Nc1nc2c(ncn2[C@@H]2O[C@@H]3COP(=O)(O)O[C@@H]4[C@H](O)[C@@H](COP(=O)(O)CO[C@@H]2[C@@H]3O)O[C@H]4n2cnc3c(N)ncnc32)c(=O)[nH]1 [Example 2, 2-amino-9-((1R,6R,8R,9R,15R,17R,18R,19R)-17-(6-amino-9H-purin-9-yl)-3,12,18,19-tetrahydroxy-3,12-dioxido-2,4,7,10,13,16-hexaoxa-3,12-diphosphatricyclo[13.2.1.1^6,9]nonadecan-8-yl)-1,9-dihydro-6H-purin-6-one]	9.0	150	16.5
Nc1ncnc2c1ncn2[C@@H]1O[C@@H]2COP(=O)(O)CO[C@H]3[C@H](O)[C@@H](COP(=O)(O)CO[C@H]1[C@@H]2O)O[C@H]3n1cnc2c(N)ncnc21 [Example 6, (1S,7R,9R,10S,16R,18R,19R,20R)-9,18-bis(6-amino-9H-purin-9-yl)-4,13,19,20-tetrahydroxy-2,5,8,11,14,17-hexaoxa-4,13-diphosphatricyclo[14.2.1.1^7,10]icosane 4,13-dioxide]	0.0	> 50000	−0.3
Nc1ncnc2c1ncn2[C@@H]1O[C@@H]2COP(=O)(O)O[C@@H]3[C@H](F)[C@@H](COP(=O)(O)CO[C@@H]1[C@@H]2F)O[C@H]3n1cnc2c(N)ncnc21 [Example 8, (1S,6R,8R,9S,15R,17R,18R,19R)-8,17-bis(6-amino-9H-purin-9-yl)-18,19-difluoro-3,12-dihydroxy-2,4,7,10,13,16-hexaoxa-3,12-diphosphatricyclo[13.2.1.1^6,9]nonadecane 3,12-dioxide]	3.6	1100	11.5
